{"source": "patent US12077503B2", "about": "“Substituted cyclic amides and their use as herbicides” (FMC CORPORATION, priority 2015, dated 2024)", "format_in_all_cases": "in vivo", "key": {"[1]": {"tested_on": "giant foxtail (Setaria faberii)", "experiment": "Test A postemergence", "conditions": "Setaria faberi, post-emergence, 240 h, Postemergence, read-out: Foxtail, Giant plant response rating (0 to 100 scale)", "in_short": "(§1)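 Each rating is a visual injury score from 0 to 100 given about 10 d after treatment, judged against untreated controls kept alongside in the greenhouse. In loam soil–sand blend, seeds got a preemergence directed soil spray, while postemergence plants were 2 to 10 cm tall at spraying.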"}, "[2]": {"tested_on": "corn (Zea mays)", "experiment": "Test A postemergence", "conditions": "Zea mays, post-emergence, 240 h, Postemergence, read-out: Corn plant response rating (0 to 100 scale)", "in_short": "as §1"}, "[3]": {"tested_on": "blackgrass (Alopecurus myosuroides)", "experiment": "Test A postemergence", "conditions": "Alopecurus myosuroides, post-emergence, 240 h, Postemergence, read-out: Blackgrass plant response rating (0 to 100 scale)", "in_short": "as §1"}, "[4]": {"tested_on": "Kochia (Kochia scoparia)", "experiment": "Test A postemergence", "conditions": "Bassia scoparia, post-emergence, 240 h, Postemergence, read-out: Kochia plant response rating (0 to 100 scale)", "in_short": "as §1"}, "[5]": {"tested_on": "pigweed (Amaranthus retroflexus)", "experiment": "Test A postemergence", "conditions": "Amaranthus retroflexus, post-emergence, 240 h, Postemergence, read-out: Pigweed plant response rating (0 to 100 scale)", "in_short": "as §1"}, "[6]": {"tested_on": "barnyardgrass (Echinochloa crus-galli)", "experiment": "Test A postemergence", "conditions": "Echinochloa crus-galli, post-emergence, 240 h, Postemergence", "in_short": "as §1"}, "[7]": {"tested_on": "ragweed (common ragweed, Ambrosia elatior)", "experiment": "Test A postemergence", "conditions": "Ambrosia artemisiifolia, post-emergence, 240 h, Postemergence, read-out: Ragweed plant response rating (0 to 100 scale)", "in_short": "as §1"}, "[8]": {"tested_on": "Galium (catchweed bedstraw, Galium aparine)", "experiment": "Test A postemergence", "conditions": "Galium, post-emergence, 240 h, Postemergence, read-out: Galium plant response rating (0 to 100 scale)", "in_short": "as §1"}, "[9]": {"tested_on": "ryegrass, Italian (Italian ryegrass, Lolium multiflorum)", "experiment": "Test A postemergence", "conditions": "Lolium multiflorum, post-emergence, 240 h, Postemergence, read-out: Ryegrass, Italian plant response rating (0 to 100 scale)", "in_short": "as §1"}, "[10]": {"tested_on": "wheat (Triticum aestivum)", "experiment": "Test A postemergence", "conditions": "Triticum aestivum, post-emergence, 240 h, Postemergence, read-out: Wheat plant response rating (0 to 100 scale)", "in_short": "as §1"}, "[11]": {"tested_on": "giant foxtail (Setaria faberii)", "experiment": "Test A preemergence", "conditions": "Setaria faberi, pre-emergence, 240 h, Preemergence", "in_short": "as §1"}, "[12]": {"tested_on": "Kochia (Kochia scoparia)", "experiment": "Test A preemergence", "conditions": "Bassia scoparia, pre-emergence, 240 h, Preemergence", "in_short": "as §1"}, "[13]": {"tested_on": "pigweed (Amaranthus retroflexus)", "experiment": "Test A preemergence", "conditions": "Amaranthus retroflexus, pre-emergence, 240 h, Preemergence"}, "[14]": {"tested_on": "barnyardgrass (Echinochloa crus-galli)", "experiment": "Test A preemergence", "conditions": "Echinochloa crus-galli, pre-emergence, 240 h, Preemergence", "in_short": "as §1"}, "[15]": {"tested_on": "ragweed (common ragweed, Ambrosia elatior)", "experiment": "Test A preemergence", "conditions": "Ambrosia artemisiifolia, pre-emergence, 240 h, Preemergence", "in_short": "as §1"}, "[16]": {"tested_on": "ryegrass, Italian (Italian ryegrass, Lolium multiflorum)", "experiment": "Test A preemergence", "conditions": "Lolium multiflorum, pre-emergence, 240 h, Preemergence", "in_short": "as §1"}, "[17]": {"tested_on": "ducksalad (Heteranthera limosa)", "experiment": "Test B flooded paddy test", "conditions": "Heteranthera limosa, 360 h, Flood, 250 g ai/ha; visually evaluated after 13 to 15 d; read-out: Plant response rating, Ducksalad (0 to 100 scale where 0 is no effect and 100 is complete control)", "in_short": "(§2)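 Visual ratings (0 none to 100 complete control) are relative to untreated plants, taken 13–15 d after treatment in a greenhouse. Test material went straight into floodwater standing 3 cm above the soil, kept constant, on plants at the 2-leaf stage.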"}, "[18]": {"tested_on": "barnyardgrass (Echinochloa crus-galli)", "experiment": "Test B flooded paddy test", "conditions": "Echinochloa crus-galli, 360 h, Flood, 250 g ai/ha; visually evaluated after 13 to 15 d; read-out: Plant response rating, Barnyardgrass (0 to 100 scale where 0 is no effect and 100 is complete control)", "in_short": "as §2"}, "[19]": {"tested_on": "rice (Oryra sativa)", "experiment": "Test B flooded paddy test", "conditions": "Oryza sativa, 360 h, Flood, 250 g ai/ha; visually evaluated after 13 to 15 d; read-out: Plant response rating, Rice (0 to 100 scale where 0 is no effect and 100 is complete control)", "in_short": "as §2"}, "[20]": {"tested_on": "sedge, umbrella (small-flower umbrella sedge, Cyperus difformis)", "experiment": "Test B flooded paddy test", "conditions": "Cyperus difformis, 360 h, Flood, 250 g ai/ha; visually evaluated after 13 to 15 d; read-out: Plant response rating, Sedge, Umbrella (0 to 100 scale where 0 is no effect and 100 is complete control)", "in_short": "as §2"}, "[21]": {"conditions": "125 g ai/ha, visual rating about 10 d after treatment"}, "[22]": {"conditions": "31 g ai/ha, 0 is no effect, 100 is complete control"}}}
{"compound": "Cc1cccc([C@H]2CN(C)C(=O)[C@@H]2C(=O)Nc2cccnc2F)c1", "note": "[Compound 1345]", "values": [{"measurement": "pest or weed control at 125 g/ha", "setting": "[1]; [21]", "result": 90, "unit": "%"}, {"measurement": "pest or weed control at 31 g/ha", "setting": "[1]; [22]", "result": 20, "unit": "%"}, {"measurement": "plant injury at 125 g/ha", "setting": "[2]; [21]", "result": 0, "unit": "%"}, {"measurement": "plant injury at 31 g/ha", "setting": "[2]; [22]", "result": 0, "unit": "%"}, {"measurement": "pest or weed control at 125 g/ha", "setting": "[3]; [21]", "result": 20, "unit": "%"}, {"measurement": "pest or weed control at 31 g/ha", "setting": "[3]; [22]", "result": 0, "unit": "%"}, {"measurement": "pest or weed control at 125 g/ha", "setting": "[4]; [21]", "result": 0, "unit": "%"}, {"measurement": "pest or weed control at 31 g/ha", "setting": "[4]; [22]", "result": 0, "unit": "%"}, {"measurement": "pest or weed control at 125 g/ha", "setting": "[5]; [21]", "result": 0, "unit": "%"}, {"measurement": "pest or weed control at 31 g/ha", "setting": "[5]; [22]", "result": 0, "unit": "%"}, {"measurement": "pest or weed control at 125 g/ha", "setting": "[6]; 125 g ai/ha, visual rating about 10 d after treatment, read-out: Barnyardgrass plant response rating (0 to 100 scale, 0 no effect, 100 complete control)", "result": 90, "unit": "%"}, {"measurement": "pest or weed control at 31 g/ha", "setting": "[6]; 31 g ai/ha, 0 is no effect, 100 is complete control, read-out: Barnyardgrass plant response rating (0 to 100 scale)", "result": 50, "unit": "%"}, {"measurement": "pest or weed control at 125 g/ha", "setting": "[7]; [21]", "result": 0, "unit": "%"}, {"measurement": "pest or weed control at 31 g/ha", "setting": "[7]; [22]", "result": 0, "unit": "%"}, {"measurement": "pest or weed control at 125 g/ha", "setting": "[8]; [21]", "result": 20, "unit": "%"}, {"measurement": "pest or weed control at 31 g/ha", "setting": "[8]; [22]", "result": 0, "unit": "%"}, {"measurement": "pest or weed control at 125 g/ha", "setting": "[9]; [21]", "result": 0, "unit": "%"}, {"measurement": "pest or weed control at 31 g/ha", "setting": "[9]; [22]", "result": 0, "unit": "%"}, {"measurement": "plant injury at 125 g/ha", "setting": "[10]; [21]", "result": 0, "unit": "%"}, {"measurement": "plant injury at 31 g/ha", "setting": "[10]; [22]", "result": 0, "unit": "%"}, {"measurement": "pest or weed control at 31 g/ha", "setting": "[11]; 31 g ai/ha, 0 to 100 scale where 0 is no effect and 100 is complete control, read-out: Foxtail, Giant plant response rating", "result": 90, "unit": "%"}, {"measurement": "pest or weed control at 125 g/ha", "setting": "[11]; 125 g ai/ha, 0 to 100 scale (0 no effect, 100 complete control), read-out: Plant response rating, Foxtail, Giant", "result": 100, "unit": "%"}, {"measurement": "pest or weed control at 31 g/ha", "setting": "[12]; 31 g ai/ha, 0 to 100 scale where 0 is no effect and 100 is complete control, read-out: Kochia plant response rating", "result": 0, "unit": "%"}, {"measurement": "pest or weed control at 125 g/ha", "setting": "[12]; 125 g ai/ha, 0 to 100 scale (0 no effect, 100 complete control), read-out: Plant response rating, Kochia", "result": 40, "unit": "%"}, {"measurement": "pest or weed control at 31 g/ha", "setting": "[13]; 31 g ai/ha, 0 to 100 scale where 0 is no effect and 100 is complete control, read-out: Pigweed plant response rating", "result": 0, "unit": "%"}, {"measurement": "pest or weed control at 125 g/ha", "setting": "[13]; 125 g ai/ha, 0 to 100 scale (0 no effect, 100 complete control), read-out: Plant response rating, Pigweed", "result": 0, "unit": "%"}, {"measurement": "pest or weed control at 31 g/ha", "setting": "[14]; 31 g ai/ha, 0 to 100 scale where 0 is no effect and 100 is complete control, read-out: Barnyardgrass plant response rating", "result": 80, "unit": "%"}, {"measurement": "pest or weed control at 125 g/ha", "setting": "[14]; 125 g ai/ha, 0 to 100 scale (0 no effect, 100 complete control), read-out: Plant response rating, Barnyardgrass", "result": 100, "unit": "%"}, {"measurement": "pest or weed control at 31 g/ha", "setting": "[15]; 31 g ai/ha, 0 to 100 scale where 0 is no effect and 100 is complete control, read-out: Ragweed plant response rating", "result": 0, "unit": "%"}, {"measurement": "pest or weed control at 125 g/ha", "setting": "[15]; 125 g ai/ha, 0 to 100 scale (0 no effect, 100 complete control), read-out: Plant response rating, Ragweed", "result": 60, "unit": "%"}, {"measurement": "pest or weed control at 31 g/ha", "setting": "[16]; 31 g ai/ha, 0 to 100 scale where 0 is no effect and 100 is complete control, read-out: Ryegrass, Italian plant response rating", "result": 0, "unit": "%"}, {"measurement": "pest or weed control at 125 g/ha", "setting": "[16]; 125 g ai/ha, 0 to 100 scale (0 no effect, 100 complete control), read-out: Plant response rating, Ryegrass, Italian", "result": 0, "unit": "%"}, {"measurement": "pest or weed control at 250 g/ha", "setting": "[17]", "result": 95, "unit": "%"}, {"measurement": "pest or weed control at 250 g/ha", "setting": "[18]", "result": 90, "unit": "%"}, {"measurement": "pest or weed control at 250 g/ha", "setting": "[19]", "result": 0, "unit": "%"}, {"measurement": "pest or weed control at 250 g/ha", "setting": "[20]", "result": 0, "unit": "%"}]}
